Assay results published in patent US12565665B2, “Compositions and methods for controlled mRNA translation and stability” (TRUSTEES OF BOSTON UNIVERSITY, priority 2022, dated 2026).

Experiments:
Format in all cases: cell-based, human
UAG-MS2 editing reporter [1] = assay: Stop codon editing reporter (mCherry / mNeonGreen) co-transfected with ADAR variants, flow cytometry (median mNeonGreen to mCherry); details: n=1
Description: For the reporter system, the inventors used the fluorescent protein-epitope tag tandem fusions of mCherry-FLAG and HA-mNeonGreen as the upstream and downstream coding regions. Without DD editing activity, translation is terminated after mCherry-FLAG. Coexpression with MCP-ADAR2-DD was hypothesized to lead to binding of MCP-DD, stop codon UAG editing to UIG, and expression of mNeonGreen (FIG. 1B).
HEK 293 FT cells were co-transfected with plasmids expressing the reporter containing 2 UAG stop codons in the hairpin and a pcDNA3 construct encoding a fusion protein composed of MCP, ADAR2-DD (E488Q), and TagBFP.
Two days later, fluorescence microscopy images were taken of the cell populations. […] The inventors repeated the experiment and analyzed the samples by flow-cytometry.
The inventors transiently co-transfected HEK 293 FT cells with the mCherry-mNeonGreen reporter, MCP-ADAR2-DD variants containing different configurations of ALFA-tag insertions and NbALFA fusions, and uncaging constructs containing miRFP670 fused to ALFA. Without wishing to be bound by theory, it was hypothesized that the intramolecular interaction would inhibit the ADAR2-DD, but that the ALFA tag on the miRFP670 would displace the lower strength ALFA variants (PE and 78), and perhaps at high enough concentrations displace the intramolecular ALFA, and lead to increased editing.
The inventors then made an ADAR-DD variant with an inserted TEV protease cut site (amino acids ENLYFQG, SEQ ID NO: 286) between the C-terminus of ADAR2-DD and the N-terminus of SpyCatcher (FIG. 5C). The inventors co-transfected HEK 293 FT cells with the reporter construct, the ADAR-DD TEVcs variant, and the TEV protease and 48 hours later analyzed the transfected cells via flow cytometry (FIG. 5D-5E).
Mutated versions were then cloned and co-transfected with an editing reporter in the absence and presence of A-1331852, and absolute background and fold change upon drug addition were determined by flow cytometry (see e.g., FIG. 22d and table 11).

UAG-MS2 editing reporter [2] = assay: Stop codon editing reporter (mCherry / mNeonGreen) co-transfected with ADAR variants, fluorescence microscopy / ImageJ quantification; details: HEK 293 FT cells co-transfected with reporter containing 2 UAG stop codons in the hairpin; two days after transfection
AUA reporter = assay: Creation of a START codon (AUA to AUI), EGFPd2/dTomato reporter, flow cytometry; details: 48 hours post-transfection, n=3
Description: To test this, an ADAR substrate was designed composed of a dsRNA hairpin containing both an AUA-codon with a mismatch at the second adenine to promote specific deamination to AUI (as opposed to IUA or IUI) and an MS2 operator motif (see e.g., FIG. 26b). The design of one large dsRNA hairpin was chosen to promote correct folding of RNA secondary structures. Previous studies have shown that MS2 operators in the 5′UTR of eukaryotic mRNA can lead to decreased translational efficiency when co-expressed with its corresponding coat protein (MS2 coat protein, or MCP), so high and low affinity variants of the MS2 operator (called here MS2-C and MS2-A respectively for the base at the stem loop) were tested with the idea that the lower affinity MS2-A loop would be less likely to inhibit translation by coat protein alone. As positive controls, the same loops were also designed with the correct AUG start codon.
These designs were cloned into pcDNA3 vectors containing a bidirectional CMV promoter driving constitutive dTomato and EGFPd2 (see e.g., FIG. 26c). The S′UTR and start codon of EGFPd2 were replaced with the editable start codon designs so the translational efficiency could be measured by looking at the EGFPd2 fluorescence relative to dTomato when co-expressed with MCP-ADAR. In this construct, if the correct start codon is skipped, the next AUG codon leads to a short, out of frame translation product.
HEK293FT cells were co-transfected with each of the reporter constructs (MS2-C w/ AUG start, MS2-C w/ AUA start, MS2-A w/ AUG start, and MS2-A w/ AUA start) and either filler DNA, inactivated ADAR2-DD (E396A) fused to MCP (MCP-dADAR), or active ADAR2-DD (E488Q) fused to MCP (MCP-ADAR). 48 hours post-transfection, cells were lifted and analyzed by flow cytometry. Transfected cells were gated by dTomato, and the median EGFPd2-to-dTomato ratio for the population was calculated per replicate (n=3) by FLOWJO. 2-Way ANOVA was performed to determine significance.

T2A* construct = assay: Western blot (FLAG) of T2A* construct co-transfected with MCP-ADAR constructs; details: 3 ng T2A* and 30 ng ADAR construct; lysates 48 hours later
Procedure: Additionally, the clonal HEK line was co-transfected with 3 ng of the T2A* construct and 30 ng of either filler DNA, MCP-dADAR, or MCP-ADAR. 48 hours later lysates were collected with 1×LDS-PAGE loading buffer (THERMOFISHER) on ice. The samples were sonicated, centrifuged, and boiled at 70° C. for 10 min after the addition of 1×Reducing Agent (THERMOFISHER). The samples were run on a 4%-12% bis-tris polyacrylamide gel at 175V for 45 minutes, and the samples were transferred onto a nitrocellulose membrane using the IBLOT (THERMOFISHER). Samples were probed for FLAG tag (Direct-Blot™ HRP anti-[…] Tag Antibody, “[…]” is disclosed as SEQ ID NO: 406) and GAPDH-loading control (Direct-Blot™ HRP anti-GAPDH Antibody) respectively.

## MCP-linker-ADAR2(E488Q)-TagBFP [MCP-ADAR]
UAG-MS2 editing reporter [1]; 1 μM vs 0 μM A-1331852, flow cytometry
  Fold Change: 1.03
UAG-MS2 editing reporter [1]; HEK cells co-transfected with ADAR reporter and ADAR variant, 0 μM A-1331852, two days after transfection, gated by BFP
  Flow Cytometry Values, 0 μM (median of the ratio of mNeonGreen to mCherry): 0.9853
UAG-MS2 editing reporter [1]; HEK cells co-transfected with ADAR reporter and ADAR variant, 1 μM A-1331852, two days after transfection, gated by BFP
  Flow Cytometry Values, 1 μM (median of the ratio of mNeonGreen to mCherry): 1.0147
UAG-MS2 editing reporter [2]
  mNeonGreen expression, fluorescence microscopy: mNeonGreen robustly expressed
AUA reporter
  effect on translational efficiency from a native AUG start codon, MS2-A substrate: more modest negative effect on translational efficiency
  increase of relative fluorescence, MS2-C w/ AUA reporter, relative to NT: not significant
  relative EGFPd2/dTomato fluorescence, MS2-A w/ AUA substrate: significant increase
AUA reporter; 2-Way ANOVA
  relative fluorescence (EGFPd2-to-dTomato) of MS2-C reporters compared with filler DNA (NT): significantly decreased the relative fluorescence
T2A* construct
  FLAG staining of the main HaloTag-T2A*-FLAG-Gal4-VP64 fusion product (~67 kDa): reduced staining
